Measurements: PubChem BioAssay AID1035470 (Broad Institute, 2014)
Results filed as inconclusive are left out. Calls of active or inactive are those of the source.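 Rule for the calls: active = compound lowering the normal-ribosome reporter at least twice as much as the humanized-ribosome reporter, growth loss under a set limit; inconclusive = no clear call, values can overlap the other calls; inactive = the rest.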

Test system: E. coli WT-GFP vs G2058-humanized RFP, fluorescence, 24 h
Assay: growth inhibition of wild-type GFP E. coli versus G2058-humanized strain, dose response, G2058 mutant RFP vs wild-type GFP, cherry-pick, two tests (AID 1035470)
[1] = E. coli WT-GFP vs G2058-humanized RFP mixed culture, total growth OD600, 24 h
[2] = measured here: G2058 humanized mutant RFP growth

SMILES | AC50 [1] [µM] | AC50 | AC50 [2] [µM]
CCOc1ccc(CN(C)C(=O)c2ccc(NS(=O)(=O)c3ccc4[nH]c(=O)[nH]c4c3)cc2)cc1 | > 100 |  | 
O=c1[nH]c(C2CCCN(S(=O)(=O)c3ccccc3Cl)C2)nc2c1nnn2Cc1ccc2c(c1)OCCO2 (stereo unspecified) |  | > 100 µM (inactive) | 
CCOc1ccccc1NC(=O)c1cc(SC)ccc1Cl | > 100 | > 100 µM (inactive) | 
CC(C)CNC(=O)c1cccc(NC(=O)C(C)Oc2ccccc2)c1 (stereo unspecified) |  | > 100 µM (inactive) | 
CCn1cc(Br)c(C(=O)Nc2ccc(C(=O)OC(C)C)cc2)n1 |  | > 100 µM (inactive) | 
O=S(=O)(NC1c2cccc3cccc(c23)C1Sc1ncccn1)c1ccccc1 (stereo unspecified) | 3.21 | > 100 µM (inactive) | 
Cc1ccc(S(=O)(=O)N2CCOCC2)cc1NC(=O)COc1ccc(-c2nnco2)cc1 |  | > 100 µM (inactive) | 
CN(CCOc1ccccc1)C(=O)c1ccc(OC2CCN(C(=O)C3CC3)CC2)cc1 | > 100 | > 100 µM (inactive) | 
Cc1ccc(C2NC(=O)c3[nH]nc(-c4ccccc4)c32)cc1 (stereo unspecified) | > 100 | > 100 µM (inactive) | 
NS(=O)(=O)c1ccc(NC(=O)CCC(=O)O)cc1 | > 100 |  | 
O=C(Nc1cccc2c1CCCC2)c1ccco1 | > 100 | > 100 µM (inactive) | 
O=C(Nc1ccccc1Cl)c1ccc2c(c1)N(Cc1ccc(F)cc1)C(=O)CS2=O (stereo unspecified) |  | > 100 µM (inactive) | 
CCN(CC(=O)Nc1cccc(C#N)c1)CC(=O)Nc1cccc(OC)c1 | > 100 |  | 
CN(C)S(=O)(=O)N1CCN(c2ccccc2Cl)CC1 | > 100 | > 100 µM (inactive) | 
Cc1ccc(NS(=O)(=O)c2ccc3c(c2)CCC(=O)N3)cc1C | > 100 | > 100 µM (inactive) | 
NC(=O)c1cc(NC(=O)c2cc(Br)c(Br)s2)cc(C(N)=O)c1 |  | > 100 µM (inactive) | 
C=CCN(CC=C)C(=O)c1ccc2nc(Cc3ccc(OC)c(OC)c3)oc2c1 |  | > 100 µM (inactive) | 
COc1ccc(CN2CCC3CC2c2cc(Cl)ccc23)cc1 (stereo unspecified) |  | > 100 µM (inactive) | 
O=C(NC1CCCC(C(F)(F)F)C1)c1ccc([N+](=O)[O-])o1 (stereo unspecified) |  | > 100 µM (inactive) | 
CCCc1nc2oc3c(NCCCN(C)C)ncnc3c2c2c1CCCC2 | > 100 | > 100 µM (inactive) | 
Cc1nnc2sc(SCC(=O)Nc3ccc(Br)cc3)nn2c1=O |  | > 100 µM (inactive) | > 100

SMILES | AC50 [1] [µM] | AC50 | AC50 [2] [µM]
O=C(Nc1cccc(O)c1)c1cccc(S(=O)(=O)Nc2cccc(O)c2)c1 |  | > 100 µM (inactive) | 
Cc1cc(-c2ccc(C)c(S(=O)(=O)NCC3CCN(Cc4ccccc4F)CC3)c2)on1 | > 100 | > 100 µM (inactive) | 
COc1ccc(NC(=O)Nc2cccc3c2O[C@@H](CN(C)S(=O)(=O)c2ccc(Cl)cc2)[C@@H](C)CN([C@@H](C)CO)C3=O)cc1 |  | > 100 µM (inactive) | 
CC(=O)c1c(C)nn(CC(O)COc2ccc3c(c2)CCC3)c1C (stereo unspecified) |  | > 100 µM (inactive) | 
COc1cccc(S(=O)(=O)N2CCCCN3[C@H](C2)[C@H](c2ccc(C#CC(C)C)cc2)[C@@H]3CO)c1 |  | > 100 µM (inactive) | 
C=CCn1c(SCc2n[nH]c(=S)n2-c2ccccc2)nnc1-c1ccccc1 | > 100 | > 100 µM (inactive) | 
COc1ccc2nc(SCC(=O)Nc3ccccc3)[nH]c2c1 |  | > 100 µM (inactive) | 
COc1cccc(OC)c1CNC(=O)CCSCc1ccccc1F | > 100 | > 100 µM (inactive) | 
COc1ccc(Nc2nc(N)c([N+](=O)[O-])c(N3CCOCC3)n2)cc1 | > 100 | > 100 µM (inactive) | 
Cc1noc(C)c1COc1cccc(C(=O)N2CCc3ccccc32)c1 |  | > 100 µM (inactive) | 
COc1cccc(SCC(=O)N2CCN(c3ccccc3)CC2)c1 | > 100 |  | 
O=S1(=O)c2ccc(Br)cc2OCCC2CCCCN21 (stereo unspecified) | > 100 | > 100 µM (inactive) | 
COc1ccc(-c2cc(C(=O)N3CCc4ccccc4C3)no2)cc1 |  | > 100 µM (inactive) | 
CS(=O)(=O)c1ccc(C(=O)Nc2nc(-c3ccco3)c(-c3ccco3)s2)cc1 | > 100 | > 100 µM (inactive) | > 100
CC(C(=O)Nc1nc2ccccc2s1)n1cc([N+](=O)[O-])cn1 (stereo unspecified) | > 100 | > 100 µM (inactive) | > 100
Cc1ccn2cc(-c3cccc(NC(=O)c4cccs4)c3)nc2c1 | > 100 | > 100 µM (inactive) | 
CC(=O)CSc1ccc(-c2nc3ccccc3[nH]2)cn1 | > 100 | > 100 µM (inactive) | 
O=C1OCCC1Sc1nc2ccccc2c(=O)n1Cc1ccccc1 (stereo unspecified) |  | > 100 µM (inactive) | 
O=C(O)c1ccccc1NC(=O)C(c1ccccc1)c1ccccc1 |  | > 100 µM (inactive) | 
Cc1nc(N2CCC(C)CC2)c(C#N)c(C)c1[N+](=O)[O-] |  | > 100 µM (inactive) | 
